Tests used:
[1] = biological target: T1, Progesterone PR-B receptors from human breast carcinoma T47D cells (Homo sapiens, UniProt P06401); assay: PR binding assay, [3H]Progesterone; settings: Table 8; 0.5 nM [3H]Progesterone
T1 construct: endogenous in cells; host or cells: T47D human breast carcinoma cells (cell supernatant)
T1 sequence (P06401 1-933): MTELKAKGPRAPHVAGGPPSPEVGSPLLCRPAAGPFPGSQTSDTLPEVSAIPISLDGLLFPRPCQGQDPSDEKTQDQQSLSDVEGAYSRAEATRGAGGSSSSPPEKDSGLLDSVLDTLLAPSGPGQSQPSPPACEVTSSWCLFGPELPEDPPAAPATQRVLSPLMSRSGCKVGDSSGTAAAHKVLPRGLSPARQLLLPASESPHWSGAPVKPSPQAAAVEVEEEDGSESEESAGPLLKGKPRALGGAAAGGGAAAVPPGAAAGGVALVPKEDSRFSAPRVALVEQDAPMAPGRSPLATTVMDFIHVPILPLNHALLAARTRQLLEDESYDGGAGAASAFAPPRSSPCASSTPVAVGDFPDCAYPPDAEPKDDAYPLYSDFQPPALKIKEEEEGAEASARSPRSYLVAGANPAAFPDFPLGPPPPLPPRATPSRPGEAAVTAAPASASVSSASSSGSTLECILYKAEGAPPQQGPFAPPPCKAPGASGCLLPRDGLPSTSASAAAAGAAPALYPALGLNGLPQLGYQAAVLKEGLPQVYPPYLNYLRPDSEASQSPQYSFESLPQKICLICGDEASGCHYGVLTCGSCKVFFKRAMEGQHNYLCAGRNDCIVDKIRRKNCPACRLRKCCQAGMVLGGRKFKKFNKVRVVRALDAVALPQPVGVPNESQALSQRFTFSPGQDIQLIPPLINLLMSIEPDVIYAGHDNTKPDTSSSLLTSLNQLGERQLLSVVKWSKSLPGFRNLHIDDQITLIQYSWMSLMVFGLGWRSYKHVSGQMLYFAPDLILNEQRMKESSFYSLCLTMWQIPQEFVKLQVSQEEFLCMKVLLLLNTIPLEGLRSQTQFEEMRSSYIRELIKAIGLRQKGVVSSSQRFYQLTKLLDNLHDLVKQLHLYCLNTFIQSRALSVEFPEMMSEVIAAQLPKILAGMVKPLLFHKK
Description: PR binding assay: Progesterone PR-B receptors from human breast carcinoma T47D cells are used in modified Na2HPO4/NaH2PO4 buffer pH 7.4. Compounds were screened at a range of doses (Top dose 40 nM, 4 fold serial dilution, 8 point dose response) and were dispensed into the assay plate. Supernatant of 1.2×10^5 cells aliquot was added to the assay plate and was incubated with 0.5 nM [^3H]Progesterone for 20 hours at 4° C. Membranes are filtered and washed, the filters are then counted to determine [^3H]Progesterone specifically bound. Binding IC50 was determined as the concentration where 50% inhibition of radioligand binding was observed.

[2] = biological target: T2, ligand binding domain of the glucocorticoid receptor (Homo sapiens, UniProt P04150); assay: GR antagonism assay (HEK293, dexamethasone 1.5 nM, Dual-glo); type: cell-based; settings: Table 8
T2 construct: expressed in transfected cells
T2 sequence (P04150 524-758 limits assumed): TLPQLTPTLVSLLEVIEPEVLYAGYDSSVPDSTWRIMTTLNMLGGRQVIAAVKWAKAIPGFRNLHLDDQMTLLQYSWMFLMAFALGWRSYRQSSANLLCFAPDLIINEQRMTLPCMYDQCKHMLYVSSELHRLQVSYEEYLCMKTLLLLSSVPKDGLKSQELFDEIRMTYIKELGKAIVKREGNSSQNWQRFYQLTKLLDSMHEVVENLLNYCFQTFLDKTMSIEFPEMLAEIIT
Description: GR antagonism assay: To evaluate GR antagonist activity, test compound was added to the assay plate (top dose 5 μM, 4 fold serial dilution, 8 point dose response). HEK293 cells stably expressing the ligand binding domain of the glucocorticoid receptor were seeded at a density of 40000 cells/well in the assay plate. The assay plate was then incubated at 37° C., 5% CO2 for 30 minutes. Dexamethasone was added to the assay plate at 1.5 nM final concentration and the assay plate was incubated at 37° C., 5% CO2 for 20 h. After the incubation period, Dual-glo luciferase reagent was added to the assay plate and mixed at room temperature for 20 minutes on an orbital shaker, before reading out on the EnVision plate reader.

[3] = biological target: T3, GR, cytosol from IM-9 cells (Homo sapiens, UniProt P04150); assay: GR binding assay, 3H-Dexamethasone; settings: Table 8; 3H-Dexamethasone 1.5 nM
T3 construct: endogenous in cells; host or cells: IM-9 cells (cytosol)
T3 sequence (P04150 1-777): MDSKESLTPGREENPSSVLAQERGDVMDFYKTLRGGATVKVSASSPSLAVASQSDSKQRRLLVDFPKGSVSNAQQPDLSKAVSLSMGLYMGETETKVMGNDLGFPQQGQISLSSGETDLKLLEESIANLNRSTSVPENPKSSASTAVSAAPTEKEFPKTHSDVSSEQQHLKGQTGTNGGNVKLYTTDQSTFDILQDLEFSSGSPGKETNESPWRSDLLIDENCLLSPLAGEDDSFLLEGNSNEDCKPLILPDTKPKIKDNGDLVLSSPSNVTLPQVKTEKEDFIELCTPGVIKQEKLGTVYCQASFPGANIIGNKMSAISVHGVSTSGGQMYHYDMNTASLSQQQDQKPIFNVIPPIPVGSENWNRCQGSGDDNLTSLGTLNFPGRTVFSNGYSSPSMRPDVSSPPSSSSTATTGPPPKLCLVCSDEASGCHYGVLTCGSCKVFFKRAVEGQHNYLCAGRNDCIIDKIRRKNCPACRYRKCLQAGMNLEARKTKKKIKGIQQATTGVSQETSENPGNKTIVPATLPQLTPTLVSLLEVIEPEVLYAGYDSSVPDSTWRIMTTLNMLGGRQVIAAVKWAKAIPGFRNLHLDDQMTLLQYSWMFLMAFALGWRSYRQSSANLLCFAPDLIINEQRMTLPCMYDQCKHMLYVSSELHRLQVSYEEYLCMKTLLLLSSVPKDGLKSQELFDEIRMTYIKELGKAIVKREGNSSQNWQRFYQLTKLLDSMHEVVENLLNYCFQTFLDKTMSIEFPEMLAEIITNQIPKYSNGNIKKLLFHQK
Description: GR binding assay: To assess GR binding, test compound (top dose 1 μM, 4 fold serial dilution, 8 point dose response) and control (dexamethasone) were transferred to the assay plate. Cytosol from IM-9 cells was added to the plate, followed by addition of radiolabeled ^3H-Dexamethasone at a final concentration of 1.5 nM. The plate was sealed, and the reaction was incubated at 300 rpm at 4° C. for 24 hrs. Radioligand absorption buffer (10 mM Tris-HCl, pH 7.4; 1.5 mM EDTA; 1 mM DTT; 0.25% charcoal; 0.0025% dextran) was then added to the plate, mixed, and incubated at 4° C. for 15 minutes. The plate was then centrifuged at […] for 30 minutes at 4° C. The supernatant was transferred to the scint-tube and Tri-carb was used for scintillation counting. The data was analyzed using GraphPadPrism v5.0 and binding IC50 was determined as the concentration where 50% inhibition of radioligand binding was observed.

Compound	IC50 [1] [nM]	IC50 [2] [nM]	IC50 [3] [nM]
CC#C[C@]1(O)CC[C@H]2[C@@H]3CCC4=CC(=O)CCC4=C3[C@@H](c3ccc(N(C)CCCCCC(=O)N4CCN(C(=O)c5cc(Cc6n[nH]c(=O)c7ccccc67)ccc5F)CC4)cc3)C[C@@]21C [Compound 135, 4-(4-fluoro-3-(4-(6-((4-((8S,11R,13S,14S,17S)-17-hydroxy-13-methyl-3-oxo-17-(prop-1-ynyl)-2,3,6,7,8,11,12,13,14,15,16,17-dodecahydro-1H-cyclopenta[a]phenanthren-11-yl)phenyl)(methyl)amino)hexanoyl)piperazine-1-carbonyl)benzyl)phthalazin-1(2H)-one]	< 10	< 10	< 10
CC(=O)O[C@]1(C(C)=O)CC[C@H]2[C@@H]3CCC4=CC(=O)CCC4=C3[C@@H](c3ccc(N(C)CCCCCC(=O)N4CCN(C(=O)c5cc(Cc6n[nH]c(=O)c7ccccc67)ccc5F)CC4)cc3)C[C@@]21C [Compound 1378, (8S,11R,13S,14S,17R)-17-acetyl-11-(4-((6-(4-(2-fluoro-5-((4-oxo-3,4-dihydrophthalazin-1-yl)methyl)benzoyl)piperazin-1-yl)-6-oxohexyl)(methyl)amino)phenyl)-13-methyl-3-oxo-2,3,6,7,8,11,12,13,14,15,16,17-dodecahydro-1H-cyclopenta[a]phenanthren-17-yl acetate]	< 10	< 10	< 10
CC(=O)O[C@]1(C(C)=O)CC[C@H]2[C@@H]3CCC4=CC(=O)CCC4=C3[C@@H](c3ccc(N(C)CCCCCC(=O)NCCOCCOCC(=O)N4CCN(C(=O)c5cc(Cc6n[nH]c(=O)c7ccccc67)ccc5F)CC4)cc3)C[C@@]21C [Compound 1384, (8S,11R,13S,14S,17R)-17-acetyl-11-(4-((6-(2-(2-(2-(4-(2-fluoro-5-((4-oxo-3,4-dihydrophthalazin-1-yl)methyl)benzoyl)piperazin-1-yl)-2-oxoethoxy)ethoxy)ethylamino)-6-oxohexyl)(methyl)amino)phenyl)-13-methyl-3-oxo-2,3,6,7,8,11,12,13,14,15,16,17-dodecahydro-1H-cyclopenta[a]phenanthren-17-yl acetate]	< 10	10 to 100	< 10
C[C@]12CC[C@H]3[C@@H](CCC4=CC(=O)CC[C@@]43C)[C@@H]1CC[C@@H]2C(=O)COCCCCCC(=O)N1CCN(C(=O)c2cc(Cc3n[nH]c(=O)c4ccccc34)ccc2F)CC1 [Compound 1386, 4-(3-(4-(6-(2-((8S,9S,10R,13S,14S,17S)-10,13-dimethyl-3-oxo-2,3,6,7,8,9,10,11,12,13,14,15,16,17-tetradecahydro-1H-cyclopenta[a]phenanthren-17-yl)-2-oxoethoxy)hexanoyl)piperazine-1-carbonyl)-4-fluorobenzyl)phthalazin-1(2H)-one]	10 to 100	100 to 1000	100 to 1000
CC#C[C@]1(O)CC[C@H]2[C@@H]3CCC4=CC(=O)CCC4=C3[C@@H](c3ccc(N(C)CCCCCC(=O)NCCOCCOCC(=O)N4CCN(C(=O)c5cc(Cc6n[nH]c(=O)c7ccccc67)ccc5F)CC4)cc3)C[C@@]21C [Compound 1429, N-(2-(2-(2-(4-(2-fluoro-5-((4-oxo-3,4-dihydrophthalazin-1-yl)methyl)benzoyl)piperazin-1-yl)-2-oxoethoxy)ethoxy)ethyl)-6-((4-((8S,11R,13S,14S,17S)-17-hydroxy-13-methyl-3-oxo-17-(prop-1-ynyl)-2,3,6,7,8,11,12,13,14,15,16,17-dodecahydro-1H-cyclopenta[a]phenanthren-11-yl)phenyl)(methyl)amino)hexanamide]	< 10	10 to 100	< 10
